Where two headings read alike, the source gives them in different places. Numbered stars: 1 amine (or outer) side, 2 acyl side, 3 side chain; on linkers, the order of the positions; unused ones are H or OH. Square brackets hold non-standard residues; d marks the D form. Side chains are listed from the residue outwards. Peptide text beside a SMILES is read from it. * marks the point of attachment. C20 diacid = O=C(O)CCCCCCCCCCCCCCCCCCC(=O)*; γGlu = O=C(O)[C@H](CCC(=O)[*:2])N[*:1]; AEEA = NCCOCCOCC(=O)O; Aib = CC(C)(N)C(=O)O
Experiments:
[1] = Fibril formation of crude library peptides (Thioflavin T); type: physicochemical; design: key: average ThT fluorescence emission at 480 nm (ex 450 nm), raw units; conditions: Physical stability of peptides
Outline: (§1)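 Fibril formation is scored as average ThT fluorescence from duplicate samples monitored for 72 h at 40° C with shaking stress. Turbidity is the absorbance at 600 nm taken before heating. Peptide concentration was 267 μM at pH 4.0 or pH 7.0.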

GLP1R = GLP1R (Homo sapiens, UniProt P43220); experiment: hGLP1R potency, cAMP accumulation in CHO-K1 cells stably overexpressing hGLP1R; type: cell-based; design: host or cells: CHO-K1; conditions: for EC50: cAMP accumulation; for SCTR EC50/GLP1R EC50 ratio: cAMP accumulation in CHO-K1 cells; for Selectivity: SCTR EC50/GLP1R EC50 ratio
Outline: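 TR-FRET cAMP read-out, one hour after reagent addition, following 30 min compound exposure at RT in DPBS/0.05% casein/0.5 mM IBMX. Crude peptides: 5 points, 10-fold steps, n=1. Purified peptides: 11 points, 3-fold steps, n=2. EC50 fitted with a variable-slope sigmoid.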

[2] = Turbidity of crude library peptides (absorbance at 600 nm); type: physicochemical; conditions: Physical stability of peptides
Outline: as §1

SCTR = SCTR (Homo sapiens, UniProt P47872); experiment: hSCTR potency, cAMP accumulation in CHO-K1 cells stably overexpressing hSCTR; type: cell-based; design: alternatively Euroscreen ES-712-AF; FAST-0161L; host or cells: CHO-K1; conditions: cAMP accumulation
Outline: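 CHO-K1/hSCTR cells; DPBS + 0.05% casein + 0.5 mM IBMX; 30 min RT stimulation; cAMP by TR-FRET read at 1 h. Crude peptides: 5-point 10-fold dilutions, n=1. Purified: 11-point 3-fold dilutions, n=2. EC50 via variable-slope fit.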

[3] = CHO-K1 cells overexpressing hGLP1R, read-out: hGLP1R pEC50 (converted)
[4] = selectivity for hGLP1R over hSCTR
[5] = CHO-K1 cells overexpressing hSCTR, read-out: hSCTR pEC50 (converted)
[6] = CHO-K1 cells overexpressing hGLP1R, read-out: pEC50 hGLPR1 (converted)
[7] = CHO-K1 cells overexpressing hSCTR, read-out: pEC50 hSCTR (converted)

Chain of SCTR (P47872 23-440): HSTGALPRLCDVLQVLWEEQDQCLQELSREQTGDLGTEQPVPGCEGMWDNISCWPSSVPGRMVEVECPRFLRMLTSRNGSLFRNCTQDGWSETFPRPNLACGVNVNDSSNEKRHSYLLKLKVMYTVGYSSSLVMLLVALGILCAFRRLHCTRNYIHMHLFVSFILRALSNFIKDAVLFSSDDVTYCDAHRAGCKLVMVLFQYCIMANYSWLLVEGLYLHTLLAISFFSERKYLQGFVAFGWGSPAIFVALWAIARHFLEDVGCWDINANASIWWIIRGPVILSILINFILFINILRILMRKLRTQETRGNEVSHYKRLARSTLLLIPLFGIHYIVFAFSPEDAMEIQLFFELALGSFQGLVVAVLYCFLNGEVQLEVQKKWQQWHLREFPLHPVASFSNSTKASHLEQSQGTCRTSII
Chain of GLP1R (P43220 24-463): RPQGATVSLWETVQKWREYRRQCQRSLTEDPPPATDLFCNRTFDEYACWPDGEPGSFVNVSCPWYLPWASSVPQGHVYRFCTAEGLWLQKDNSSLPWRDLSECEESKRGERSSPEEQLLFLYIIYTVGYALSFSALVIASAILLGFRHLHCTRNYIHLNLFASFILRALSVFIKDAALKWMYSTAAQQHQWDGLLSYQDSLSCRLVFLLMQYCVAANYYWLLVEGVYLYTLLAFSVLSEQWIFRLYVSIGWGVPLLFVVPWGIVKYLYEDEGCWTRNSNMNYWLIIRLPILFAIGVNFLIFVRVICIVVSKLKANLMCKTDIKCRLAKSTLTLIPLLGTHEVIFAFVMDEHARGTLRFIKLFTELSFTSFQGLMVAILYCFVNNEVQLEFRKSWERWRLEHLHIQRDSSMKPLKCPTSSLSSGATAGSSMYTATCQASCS

CC(C)C[C@H](NC(=O)[C@H](C)NC(=O)[C@H](CCC(=O)O)NC(=O)[C@H](CCC(=O)O)NC(=O)[C@H](CCCCNC(=O)COCCOCCNC(=O)COCCOCCNC(=O)CC[C@H](NC(=O)CCCCCCCCCCCCCCCCCCC(=O)O)C(=O)O)NC(=O)[C@H](CC(C)C)NC(=O)[C@H](Cc1ccc(O)cc1)NC(=O)[C@H](CO)NC(=O)[C@@H](NC(=O)[C@H](CC(=O)O)NC(=O)[C@H](CO)NC(=O)[C@@H](NC(=O)[C@H](Cc1ccccc1)NC(=O)[C@@H](NC(=O)CNC(=O)[C@H](CCC(=O)O)NC(=O)C(C)(C)NC(=O)[C@@H](N)Cc1c[nH]cn1)[C@@H](C)O)[C@@H](C)O)C(C)C)C(=O)N[C@@H](CC(C)C)C(=O)N[C@@H](CCC(N)=O)C(=O)N[C@@H](CCCNC(=N)N)C(=O)N[C@@H](Cc1ccccc1)C(=O)N[C@@H](CC(C)C)C(=O)N[C@@H](CCC(=O)O)C(=O)N[C@@H](Cc1c[nH]cn1)C(=O)N[C@@H](CC(C)C)C(=O)N[C@H](C(N)=O)C(C)C [compound 132] (H-H[Aib]EGTFTSDVSYLK([AEEA-AEEA-γGlu-C20 diacid])EEALLQRFLEHLV-NH2)
Fibril formation [1]: 3358
EC50 (GLP1R; [3]): 0.02 nM
SCTR EC50/GLP1R EC50 ratio (GLP1R; [4]): 10415
Turbidity (pH 7) [2]: 0.08
EC50 (SCTR; [5]): 200 nM

CC(C)C[C@H](NC(=O)[C@H](Cc1ccccc1)NC(=O)[C@H](CCCNC(=N)N)NC(=O)[C@H](CCC(N)=O)NC(=O)[C@H](C)NC(=O)[C@H](C)NC(=O)[C@H](C)NC(=O)[C@H](CCC(=O)O)NC(=O)[C@H](CCC(=O)O)NC(=O)[C@H](CCCCNC(=O)COCCOCCNC(=O)COCCOCCNC(=O)CC[C@H](NC(=O)CCCCCCCCCCCCCCCCCCC(=O)O)C(=O)O)NC(=O)[C@H](CC(C)C)NC(=O)[C@@H](NC(=O)[C@H](CO)NC(=O)[C@@H](NC(=O)[C@H](CC(=O)O)NC(=O)[C@H](CO)NC(=O)[C@@H](NC(=O)[C@H](Cc1ccccc1)NC(=O)[C@@H](NC(=O)CNC(=O)[C@H](CCC(=O)O)NC(=O)C(C)(C)NC(=O)[C@@H](N)Cc1c[nH]cn1)[C@@H](C)O)[C@@H](C)O)C(C)C)[C@@H](C)O)C(=O)N[C@@H](CCC(=O)O)C(=O)N[C@@H](Cc1c[nH]cn1)C(=O)N[C@@H](CC(C)C)C(=O)N[C@H](C(N)=O)C(C)C [compound 96] (H-H[Aib]EGTFTSDVSTLK([AEEA-AEEA-γGlu-C20 diacid])EEAAAQRFLEHLV-NH2)
Fibril formation [1]: 8019
EC50 (GLP1R; [3]): 0.0126 nM
SCTR EC50/GLP1R EC50 ratio (GLP1R; [4]): 31579
Turbidity (pH 7) [2]: 0.09
EC50 (SCTR; [5]): 398 nM

CC[C@H](C)[C@H](NC(=O)[C@H](Cc1ccccc1)NC(=O)[C@H](CCCNC(=N)N)NC(=O)[C@H](CCC(N)=O)NC(=O)[C@H](CC(C)C)NC(=O)[C@H](C)NC(=O)[C@H](C)NC(=O)CNC(=O)[C@H](CCC(=O)O)NC(=O)[C@H](CC(C)C)NC(=O)[C@H](CC(C)C)NC(=O)[C@H](Cc1c[nH]c2ccccc12)NC(=O)[C@H](CO)NC(=O)[C@H](Cc1ccc(O)cc1)NC(=O)[C@H](CC(=O)O)NC(=O)[C@H](CO)NC(=O)[C@@H](NC(=O)[C@H](Cc1ccccc1)NC(=O)[C@@H](NC(=O)CNC(=O)[C@H](CCC(=O)O)NC(=O)C(C)(C)NC(=O)[C@@H](N)Cc1c[nH]cn1)[C@@H](C)O)[C@@H](C)O)C(=O)N[C@@H](CCC(N)=O)C(=O)N[C@@H](Cc1c[nH]c2ccccc12)C(=O)N[C@@H](CC(C)C)C(=O)N[C@H](C(N)=O)C(C)C [compound 200] (H-H[Aib]EGTFTSDYSWLLEGAALQRFIQWLV-NH2)
Fibril formation [1]: 141730
EC50 (GLP1R; CHO-K1 cells stably overexpressing hGLP1R, read-out: hGLP1R potency (pEC50) (converted)): 0.02 nM
SCTR EC50/GLP1R EC50 ratio (GLP1R; selectivity ratio, hSCTR vs hGLP1R): 353
Turbidity (pH 7) [2]: 0.92
EC50 (SCTR; CHO-K1 cells stably overexpressing hSCTR, read-out: hSCTR potency (pEC50) (converted)): 7.94 nM

CC[C@H](C)[C@H](NC(=O)[C@H](Cc1ccccc1)NC(=O)[C@H](CCCNC(=N)N)NC(=O)[C@H](CCC(N)=O)NC(=O)[C@H](CC(C)C)NC(=O)[C@H](C)NC(=O)[C@H](C)NC(=O)CNC(=O)[C@H](CCC(=O)O)NC(=O)[C@H](CC(C)C)NC(=O)[C@H](CC(C)C)NC(=O)C(C)(C)NC(=O)[C@H](CO)NC(=O)[C@@H](NC(=O)[C@H](CC(=O)O)NC(=O)[C@H](CO)NC(=O)[C@@H](NC(=O)[C@H](Cc1ccccc1)NC(=O)[C@@H](NC(=O)CNC(=O)[C@H](CCC(=O)O)NC(=O)C(C)(C)NC(=O)[C@@H](N)Cc1c[nH]cn1)[C@@H](C)O)[C@@H](C)O)[C@@H](C)CC)C(=O)N[C@@H](CCC(N)=O)C(=O)N[C@@H](Cc1c[nH]c2ccccc12)C(=O)N[C@@H](CC(C)C)C(=O)N[C@H](C(N)=O)C(C)C [compound 113] (H-H[Aib]EGTFTSDIS[Aib]LLEGAALQRFIQWLV-NH2)
Fibril formation [1]: 11510
EC50 (GLP1R; [3]): 0.0501 nM
SCTR EC50/GLP1R EC50 ratio (GLP1R; [4]): 1590
Turbidity (pH 7) [2]: 0.78
EC50 (SCTR; [5]): 79.4 nM

CC(C)C[C@H](NC(=O)[C@H](CCC(=O)O)NC(=O)[C@H](CCCCNC(=O)COCCOCCNC(=O)COCCOCCNC(=O)CC[C@H](NC(=O)CCCCCCCCCCCCCCCCCCC(=O)O)C(=O)O)NC(=O)[C@H](CC(C)C)NC(=O)[C@@H](NC(=O)[C@H](CO)NC(=O)[C@@H](NC(=O)[C@H](CC(=O)O)NC(=O)[C@H](CO)NC(=O)[C@@H](NC(=O)[C@H](Cc1ccccc1)NC(=O)[C@@H](NC(=O)CNC(=O)[C@H](CCC(=O)O)NC(=O)C(C)(C)NC(=O)[C@@H](N)Cc1c[nH]cn1)[C@@H](C)O)[C@@H](C)O)C(C)C)[C@@H](C)O)C(=O)N[C@@H](C)C(=O)N[C@@H](C)C(=O)N[C@H](C(=O)N[C@@H](CCC(N)=O)C(=O)N[C@@H](CCCNC(=N)N)C(=O)N[C@@H](Cc1ccccc1)C(=O)N[C@@H](CC(C)C)C(=O)N[C@@H](CCC(=O)O)C(=O)N[C@@H](Cc1c[nH]cn1)C(=O)N[C@@H](CC(C)C)C(=O)N[C@H](C(N)=O)C(C)C)[C@@H](C)O [compound 67] (H-H[Aib]EGTFTSDVSTLK([AEEA-AEEA-γGlu-C20 diacid])ELAATQRFLEHLV-NH2)
Fibril formation [1]: 5041
Selectivity (GLP1R): 7155
EC50 (GLP1R; [6]): 0.0501 nM
Turbidity (pH 7) [2]: 0.08
EC50 (SCTR; [7]): 398 nM

CC(C)C[C@H](NC(=O)[C@H](Cc1ccccc1)NC(=O)[C@H](CCCNC(=N)N)NC(=O)[C@H](CCC(N)=O)NC(=O)[C@H](CCC(N)=O)NC(=O)[C@H](C)NC(=O)[C@H](C)NC(=O)[C@H](CCC(=O)O)NC(=O)[C@H](CCC(=O)O)NC(=O)[C@H](CCCCNC(=O)COCCOCCNC(=O)COCCOCCNC(=O)CC[C@H](NC(=O)CCCCCCCCCCCCCCCCCCC(=O)O)C(=O)O)NC(=O)[C@H](CC(C)C)NC(=O)[C@@H](NC(=O)[C@H](CO)NC(=O)[C@@H](NC(=O)[C@H](CC(=O)O)NC(=O)[C@H](CO)NC(=O)[C@@H](NC(=O)[C@H](Cc1ccccc1)NC(=O)[C@@H](NC(=O)CNC(=O)[C@H](CCC(=O)O)NC(=O)C(C)(C)NC(=O)[C@@H](N)Cc1c[nH]cn1)[C@@H](C)O)[C@@H](C)O)C(C)C)[C@@H](C)O)C(=O)N[C@@H](CCC(=O)O)C(=O)N[C@@H](Cc1c[nH]cn1)C(=O)N[C@@H](CC(C)C)C(=O)N[C@H](C(N)=O)C(C)C [compound 39] (H-H[Aib]EGTFTSDVSTLK([AEEA-AEEA-γGlu-C20 diacid])EEAAQQRFLEHLV-NH2)
Fibril formation [1]: 9592
Selectivity (GLP1R): 17346
EC50 (GLP1R; [6]): 0.0158 nM
Turbidity (pH 7) [2]: 0.08
EC50 (SCTR; [7]): 316 nM

CC(C)C[C@H](NC(=O)[C@H](Cc1ccccc1)NC(=O)[C@H](CCCNC(=N)N)NC(=O)[C@H](CCC(N)=O)NC(=O)[C@H](CC(C)C)NC(=O)C(C)(C)NC(=O)[C@H](C)NC(=O)[C@H](CCC(=O)O)NC(=O)[C@H](CCC(=O)O)NC(=O)[C@H](CCCCNC(=O)COCCOCCNC(=O)COCCOCCNC(=O)CC[C@H](NC(=O)CCCCCCCCCCCCCCCCCCC(=O)O)C(=O)O)NC(=O)[C@H](CC(C)C)NC(=O)[C@H](Cc1ccc(O)cc1)NC(=O)[C@H](CO)NC(=O)[C@@H](NC(=O)[C@H](CC(=O)O)NC(=O)[C@H](CO)NC(=O)[C@@H](NC(=O)[C@H](Cc1ccccc1)NC(=O)[C@@H](NC(=O)CNC(=O)[C@H](CCC(=O)O)NC(=O)C(C)(C)NC(=O)[C@@H](N)Cc1c[nH]cn1)[C@@H](C)O)[C@@H](C)O)C(C)C)C(=O)N[C@@H](CCC(=O)O)C(=O)N[C@@H](Cc1ccccc1)C(=O)N[C@@H](CC(C)C)C(=O)N[C@H](C(N)=O)C(C)C [compound 133] (H-H[Aib]EGTFTSDVSYLK([AEEA-AEEA-γGlu-C20 diacid])EEA[Aib]LQRFLEFLV-NH2)
Fibril formation [1]: 4303
EC50 (GLP1R; [3]): 0.0158 nM
SCTR EC50/GLP1R EC50 ratio (GLP1R; [4]): 23332
Turbidity (pH 7) [2]: 0.08
EC50 (SCTR; [5]): 398 nM

From US20260201008A1, “SECRETIN-DERIVED GLP1R SELECTIVE AGONISTS” (GUBRA A/S, priority 2023, published 2026)
